Test results: ChEMBL document CHEMBL1201862, “PubChem BioAssay data set” (2004)
The source made the active and inactive calls.

What was measured:
[1] = test system: Streptococcus sp. 'group A'; test: Streptococcus pyogenes SK(-)GAS viability under kanamycin – luminescence, BacTiterGlo, confirmation, counter-screen for streptokinase expression inhibitor project, dose response (AID 1900); assay type: functional, organism-based
[2] = cells; assay type: functional, cell-based
[3] = biological target: T1, Streptokinase A (Streptococcus pyogenes serotype M1, UniProt P10520); test: viability-normalized secreted streptokinase activity reduction – plasminogen activation absorbance, OD405, dose response (AID 1914); assay type: functional, Streptococcus pyogenes M1 GAS;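 further: secreted streptokinase activity via plasminogen activation per viability signal from cell pellet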
T1 sequence (P10520 whole entry): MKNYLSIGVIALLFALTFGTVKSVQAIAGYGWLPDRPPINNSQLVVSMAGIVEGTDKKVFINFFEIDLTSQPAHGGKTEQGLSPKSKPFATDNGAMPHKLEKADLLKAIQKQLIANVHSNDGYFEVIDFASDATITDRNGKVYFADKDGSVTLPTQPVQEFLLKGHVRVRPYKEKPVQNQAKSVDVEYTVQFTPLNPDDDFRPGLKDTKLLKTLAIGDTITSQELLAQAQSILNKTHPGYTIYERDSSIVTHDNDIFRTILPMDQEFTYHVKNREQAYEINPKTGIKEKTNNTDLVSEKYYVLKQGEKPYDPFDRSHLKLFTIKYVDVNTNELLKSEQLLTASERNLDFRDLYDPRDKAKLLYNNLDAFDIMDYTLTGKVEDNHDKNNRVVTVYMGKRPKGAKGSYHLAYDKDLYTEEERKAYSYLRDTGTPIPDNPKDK

[4] = Trypanosoma cruzi growth suppression in host cells – NIH3T3 host cells, beta-gal luminescence, confirmation (AID 2044); assay type: functional, cell-based;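 further: intracellular parasites grown in NIH/3T3 mouse fibroblasts as host cells; luminescent beta-galactosidase reporter signal from transgenic T. cruzi replicating inside host cells; inhibitors lower the luminescence signal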
[5] = cells; assay type: functional, cell-based; remark: listed apart in the source
[6] = NIH3T3 cell viability loss – ATP luminescence, mouse fibroblasts, counter-screen, dose response (AID 2010); assay type: functional, cell-based;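 further: cells exposed to compound for about 90 hours before reading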
[7] = test system: Streptococcus; test: GAS UMAA2166 growth inhibition – luminescence, BacTiterGlo, counter-screen for streptokinase expression inhibitor project, dose response (AID 1915); assay type: functional, organism-based;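 further: potency for reduction of bacterial viability or growth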
[8] = biological target: T2, Type-1 angiotensin II receptor (Homo sapiens, UniProt P30556); test: agonist activity at AGTR1 – cell-based, uHTS hits, selectivity assay for APJ receptor agonist project, dose response (AID 488865); assay type: functional;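 further: beta-arrestin recruitment to AT1 measured by enzyme fragment complementation luminescence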
T2 sequence (P30556 whole entry): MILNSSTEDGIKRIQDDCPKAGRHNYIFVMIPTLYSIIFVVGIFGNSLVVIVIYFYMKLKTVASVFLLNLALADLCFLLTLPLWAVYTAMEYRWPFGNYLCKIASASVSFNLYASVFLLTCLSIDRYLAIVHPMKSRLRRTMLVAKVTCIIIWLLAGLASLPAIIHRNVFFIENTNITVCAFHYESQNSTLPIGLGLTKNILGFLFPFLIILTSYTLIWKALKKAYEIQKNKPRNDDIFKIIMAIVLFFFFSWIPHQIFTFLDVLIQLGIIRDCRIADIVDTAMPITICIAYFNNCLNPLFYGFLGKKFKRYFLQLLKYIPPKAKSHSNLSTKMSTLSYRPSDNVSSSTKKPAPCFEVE

[9] = test system: INS1; test: INS-1E survival protection against cytokine death – cell-based, luminescence, retest, dose response (AID 449756); assay type: functional; settings: Rattus norvegicus;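 further: cell death triggered by IL-1 beta plus TNF-alpha plus IFN-gamma mixture; protective hits raise ATP signal compared with cytokine alone wells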
[10] = reduction of Shn3 3'UTR-driven luciferase in osteoblasts – cell-based, Clone20 osteoblasts, firefly luciferase, cherry-picked, dose response (AID 624132); assay type: functional;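 further: firefly luciferase luminescence from reporter carrying the Shn3 3'UTR in osteoblasts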
[11] = loss of viability in HepG2 cells – cell-based, CellTiter-Glo, cherry-picked, cytotoxicity control for Shn3 inhibitor project, dose response (AID 624134); assay type: functional
[12] = non-specific 3'UTR reporter inhibition in Clone20-Shn3RL – cell-based, Renilla luciferase, cherry-picked, counter-screen for Shn3 inhibitor project, dose response (AID 624133); assay type: functional
[13] = biological target: T3, Probable nicotinate-nucleotide adenylyltransferase (Staphylococcus aureus (strain N315), UniProt P65502); assay type: functional, Staphylococcus aureus subsp. aureus N315;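 on IC50 Mean: confirmatory dose-response retesting of NadD inhibitor hits first found in an ultra-high-throughput screen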
T3 sequence (P65502 whole entry): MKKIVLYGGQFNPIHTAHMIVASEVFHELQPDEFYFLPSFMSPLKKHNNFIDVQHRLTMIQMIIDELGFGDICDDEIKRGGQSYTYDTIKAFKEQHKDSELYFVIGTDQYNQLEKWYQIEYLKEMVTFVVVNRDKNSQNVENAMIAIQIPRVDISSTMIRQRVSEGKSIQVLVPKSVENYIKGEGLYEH

[14] = biological target: T3, Probable nicotinate-nucleotide adenylyltransferase; assay type: functional, Staphylococcus aureus subsp. aureus N315; settings: read-out: IC50_Mean
[15] = viability of uninfected HEp-2 cells – cell-based, HTS, cytotoxicity control for RSV inhibitor project, dose response (AID 2410); assay type: functional; settings: human respiratory syncytial virus
[16] = biological target: Ion channel NompC (Danio rerio, UniProt Q7T1G6); test: Dose response cell-based high-throughput screening assay for agonists of the transient receptor potential channel N1 (TRPN1). [Related pubchem assays (depositor defined):AID1424, AID1448]; assay type: functional
Ion channel NompC, sequence (Q7T1G6 whole entry): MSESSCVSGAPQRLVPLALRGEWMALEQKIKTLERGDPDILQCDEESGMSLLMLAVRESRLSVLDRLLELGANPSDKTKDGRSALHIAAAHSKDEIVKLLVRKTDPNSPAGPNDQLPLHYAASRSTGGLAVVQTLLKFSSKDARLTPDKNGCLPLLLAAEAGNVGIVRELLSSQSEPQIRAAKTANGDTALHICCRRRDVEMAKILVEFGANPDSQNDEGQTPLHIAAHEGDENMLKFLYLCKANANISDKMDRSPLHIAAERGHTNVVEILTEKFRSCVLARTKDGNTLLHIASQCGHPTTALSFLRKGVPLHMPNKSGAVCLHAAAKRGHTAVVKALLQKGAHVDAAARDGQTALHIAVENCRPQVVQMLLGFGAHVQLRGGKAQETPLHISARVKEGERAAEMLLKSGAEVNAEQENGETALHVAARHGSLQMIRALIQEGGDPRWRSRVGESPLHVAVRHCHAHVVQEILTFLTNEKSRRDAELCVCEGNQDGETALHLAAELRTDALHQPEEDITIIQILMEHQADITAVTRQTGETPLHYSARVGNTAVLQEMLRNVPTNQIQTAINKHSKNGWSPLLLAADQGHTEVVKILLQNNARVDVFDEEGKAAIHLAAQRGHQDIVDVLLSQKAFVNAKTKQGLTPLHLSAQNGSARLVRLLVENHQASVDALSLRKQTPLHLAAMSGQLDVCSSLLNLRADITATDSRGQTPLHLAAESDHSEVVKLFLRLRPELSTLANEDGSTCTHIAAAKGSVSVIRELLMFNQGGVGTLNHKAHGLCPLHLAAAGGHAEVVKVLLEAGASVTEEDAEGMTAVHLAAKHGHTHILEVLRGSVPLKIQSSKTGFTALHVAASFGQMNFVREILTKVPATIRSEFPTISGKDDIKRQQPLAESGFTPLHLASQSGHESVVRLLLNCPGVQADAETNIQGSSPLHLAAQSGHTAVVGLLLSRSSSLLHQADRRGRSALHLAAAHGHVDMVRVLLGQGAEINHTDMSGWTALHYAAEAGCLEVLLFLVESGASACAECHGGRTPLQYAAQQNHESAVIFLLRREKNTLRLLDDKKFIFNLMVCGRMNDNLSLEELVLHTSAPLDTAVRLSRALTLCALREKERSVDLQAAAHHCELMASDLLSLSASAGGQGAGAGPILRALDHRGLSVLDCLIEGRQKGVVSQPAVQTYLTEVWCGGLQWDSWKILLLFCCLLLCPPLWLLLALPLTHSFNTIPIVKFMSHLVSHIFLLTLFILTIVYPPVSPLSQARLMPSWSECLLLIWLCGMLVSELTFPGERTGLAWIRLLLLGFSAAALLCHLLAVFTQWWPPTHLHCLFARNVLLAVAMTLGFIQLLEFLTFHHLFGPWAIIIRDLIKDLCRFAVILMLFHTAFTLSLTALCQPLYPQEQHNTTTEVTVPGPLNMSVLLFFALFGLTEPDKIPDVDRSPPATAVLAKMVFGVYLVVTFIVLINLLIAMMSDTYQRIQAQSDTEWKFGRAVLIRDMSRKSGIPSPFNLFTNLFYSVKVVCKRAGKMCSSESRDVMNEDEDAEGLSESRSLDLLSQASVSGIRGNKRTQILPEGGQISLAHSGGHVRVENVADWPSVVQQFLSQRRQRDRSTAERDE

[17] = biological target: T4, Mucolipin-3 (Homo sapiens, UniProt Q8TDD5); test: Fluorescence counterscreen assay for […] agonists: dose response cell-based high-throughput screening assay to identify agonists of the transient receptor potential channel ML3 (TRPML3). [Related pubchem assays: 1424, 1448 ]; assay type: functional
T4 sequence (Q8TDD5 whole entry): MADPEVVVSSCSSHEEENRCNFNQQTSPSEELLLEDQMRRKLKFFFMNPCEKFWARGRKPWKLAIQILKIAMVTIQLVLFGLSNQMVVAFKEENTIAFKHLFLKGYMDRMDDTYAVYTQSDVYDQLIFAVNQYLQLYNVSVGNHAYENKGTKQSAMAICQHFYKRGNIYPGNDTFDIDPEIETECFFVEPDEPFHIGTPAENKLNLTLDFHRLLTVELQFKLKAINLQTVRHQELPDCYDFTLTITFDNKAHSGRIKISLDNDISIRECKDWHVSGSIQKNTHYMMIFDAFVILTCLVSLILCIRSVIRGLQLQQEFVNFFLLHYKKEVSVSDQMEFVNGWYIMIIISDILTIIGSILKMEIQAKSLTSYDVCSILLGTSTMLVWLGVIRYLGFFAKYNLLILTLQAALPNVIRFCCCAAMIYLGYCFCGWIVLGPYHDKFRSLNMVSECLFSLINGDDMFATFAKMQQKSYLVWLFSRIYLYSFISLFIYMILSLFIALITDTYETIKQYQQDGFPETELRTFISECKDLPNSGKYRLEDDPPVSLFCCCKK

[18] = biological target: T5, Delta-type opioid receptor (Homo sapiens, UniProt P41143); test: HTS Image-Based Screen for Antagonists of the DOR Receptor. [Related pubchem assays (depositor defined):AID1777, AID1785, AID1786, AID2133]; assay type: functional
T5 sequence (P41143 whole entry): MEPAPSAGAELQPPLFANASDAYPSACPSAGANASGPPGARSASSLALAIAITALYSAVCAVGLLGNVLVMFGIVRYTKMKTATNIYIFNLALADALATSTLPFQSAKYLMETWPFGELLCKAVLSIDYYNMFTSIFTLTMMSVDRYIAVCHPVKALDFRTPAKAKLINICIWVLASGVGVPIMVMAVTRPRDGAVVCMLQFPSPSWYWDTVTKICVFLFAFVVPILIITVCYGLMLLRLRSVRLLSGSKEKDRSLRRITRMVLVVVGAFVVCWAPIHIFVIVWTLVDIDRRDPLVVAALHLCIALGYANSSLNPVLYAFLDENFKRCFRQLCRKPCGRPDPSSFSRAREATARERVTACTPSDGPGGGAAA

[19] = biological target: Mu-type opioid receptor (Homo sapiens, UniProt P35372); test: HTS Image-Based Screen for Agonists of the MOR Receptor. [Related pubchem assays (depositor defined):AID1777, AID1785, AID1786, AID2133]; assay type: functional;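 further: imaging of beta-arrestin GFP recruitment into spots after receptor activation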
Mu-type opioid receptor, sequence (P35372 whole entry): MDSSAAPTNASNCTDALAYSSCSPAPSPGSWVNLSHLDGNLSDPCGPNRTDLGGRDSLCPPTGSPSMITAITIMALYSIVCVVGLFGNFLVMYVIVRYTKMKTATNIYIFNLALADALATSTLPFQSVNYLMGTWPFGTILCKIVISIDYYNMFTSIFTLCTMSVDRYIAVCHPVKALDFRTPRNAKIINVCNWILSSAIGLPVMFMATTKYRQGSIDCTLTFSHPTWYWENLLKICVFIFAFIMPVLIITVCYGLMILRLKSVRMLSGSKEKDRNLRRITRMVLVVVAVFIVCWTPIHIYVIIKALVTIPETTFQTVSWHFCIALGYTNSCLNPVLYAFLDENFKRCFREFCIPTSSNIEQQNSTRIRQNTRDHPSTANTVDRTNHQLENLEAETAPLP

[20] = biological target: T5, Delta-type opioid receptor; test: HTS Image-Based Screen for Agonists of the DOR Receptor. [Related pubchem assays (depositor defined):AID1777, AID1786, AID2133]; assay type: functional
[21] = biological target: T6, Kappa-type opioid receptor (Homo sapiens, UniProt P41145); assay type: functional
T6 sequence (P41145 whole entry): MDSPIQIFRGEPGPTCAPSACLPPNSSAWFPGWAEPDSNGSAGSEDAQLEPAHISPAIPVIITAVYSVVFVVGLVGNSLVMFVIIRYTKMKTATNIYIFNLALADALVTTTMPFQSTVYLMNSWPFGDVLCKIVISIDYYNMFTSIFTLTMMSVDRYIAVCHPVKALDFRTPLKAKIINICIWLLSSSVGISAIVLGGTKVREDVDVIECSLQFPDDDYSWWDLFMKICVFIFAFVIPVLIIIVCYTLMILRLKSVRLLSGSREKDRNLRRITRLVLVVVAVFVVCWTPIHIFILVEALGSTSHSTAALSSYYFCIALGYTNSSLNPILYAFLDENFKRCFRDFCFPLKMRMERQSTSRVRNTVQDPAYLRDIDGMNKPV

[22] = biological target: Beta-galactosidase (Escherichia coli, UniProt Q8VNN2); assay type: functional
Beta-galactosidase, sequence (Q8VNN2 whole entry): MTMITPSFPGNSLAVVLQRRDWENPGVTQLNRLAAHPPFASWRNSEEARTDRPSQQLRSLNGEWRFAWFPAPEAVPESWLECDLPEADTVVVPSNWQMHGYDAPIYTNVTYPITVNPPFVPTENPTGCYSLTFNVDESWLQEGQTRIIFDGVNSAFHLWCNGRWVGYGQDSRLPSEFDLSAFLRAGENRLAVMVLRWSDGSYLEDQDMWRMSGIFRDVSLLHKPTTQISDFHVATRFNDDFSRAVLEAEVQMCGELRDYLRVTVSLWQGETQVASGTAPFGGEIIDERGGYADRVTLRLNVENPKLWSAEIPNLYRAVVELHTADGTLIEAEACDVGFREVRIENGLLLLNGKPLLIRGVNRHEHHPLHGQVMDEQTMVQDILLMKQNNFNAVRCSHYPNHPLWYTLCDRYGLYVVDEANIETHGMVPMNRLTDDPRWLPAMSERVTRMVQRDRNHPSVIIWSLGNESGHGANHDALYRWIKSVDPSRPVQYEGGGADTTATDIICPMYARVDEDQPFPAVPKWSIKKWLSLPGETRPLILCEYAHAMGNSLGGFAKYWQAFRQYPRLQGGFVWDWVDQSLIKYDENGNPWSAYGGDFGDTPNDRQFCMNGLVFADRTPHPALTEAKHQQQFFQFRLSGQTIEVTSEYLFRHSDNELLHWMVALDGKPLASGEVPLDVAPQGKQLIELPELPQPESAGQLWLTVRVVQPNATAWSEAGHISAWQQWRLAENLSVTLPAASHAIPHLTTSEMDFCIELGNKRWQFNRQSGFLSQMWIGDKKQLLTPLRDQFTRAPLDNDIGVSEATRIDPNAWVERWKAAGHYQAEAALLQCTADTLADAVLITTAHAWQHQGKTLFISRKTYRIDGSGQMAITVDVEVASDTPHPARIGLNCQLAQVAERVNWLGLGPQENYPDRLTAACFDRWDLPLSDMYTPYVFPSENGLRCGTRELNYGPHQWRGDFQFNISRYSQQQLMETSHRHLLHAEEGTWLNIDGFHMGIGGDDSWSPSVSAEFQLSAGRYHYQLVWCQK

[23] = biological target: T6, Kappa-type opioid receptor; assay type: functional; remark: listed apart in the source
[24] = biological target: T7, Bcl-2-related protein A1 (Mus musculus, UniProt Q07440); assay type: functional;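 further: confirmatory dose–response counterscreen on Bfl-1, used to check hits from a UBC13 polyubiquitin inhibitor campaign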
T7 sequence (Q07440 whole entry): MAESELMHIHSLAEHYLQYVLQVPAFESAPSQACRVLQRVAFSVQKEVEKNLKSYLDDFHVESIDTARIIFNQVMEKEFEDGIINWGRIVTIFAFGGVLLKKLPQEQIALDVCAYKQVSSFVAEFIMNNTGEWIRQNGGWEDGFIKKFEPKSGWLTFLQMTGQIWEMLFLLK

[25] = biological target: T8, Ubiquitin-conjugating enzyme E2 N (Homo sapiens, UniProt P61088); assay type: functional
T8 sequence (P61088 whole entry): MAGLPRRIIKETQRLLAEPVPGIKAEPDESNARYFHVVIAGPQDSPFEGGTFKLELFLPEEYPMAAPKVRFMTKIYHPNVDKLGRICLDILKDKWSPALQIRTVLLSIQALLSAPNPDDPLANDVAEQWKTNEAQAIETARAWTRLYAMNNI

[26] = biological target: T8, Ubiquitin-conjugating enzyme E2 N; assay type: functional; remark: listed apart in the source
[27] = biological target: T9, DNA repair protein RAD52 homolog (Homo sapiens, UniProt P43351); assay type: functional, biochemical
T9 sequence (P43351 whole entry): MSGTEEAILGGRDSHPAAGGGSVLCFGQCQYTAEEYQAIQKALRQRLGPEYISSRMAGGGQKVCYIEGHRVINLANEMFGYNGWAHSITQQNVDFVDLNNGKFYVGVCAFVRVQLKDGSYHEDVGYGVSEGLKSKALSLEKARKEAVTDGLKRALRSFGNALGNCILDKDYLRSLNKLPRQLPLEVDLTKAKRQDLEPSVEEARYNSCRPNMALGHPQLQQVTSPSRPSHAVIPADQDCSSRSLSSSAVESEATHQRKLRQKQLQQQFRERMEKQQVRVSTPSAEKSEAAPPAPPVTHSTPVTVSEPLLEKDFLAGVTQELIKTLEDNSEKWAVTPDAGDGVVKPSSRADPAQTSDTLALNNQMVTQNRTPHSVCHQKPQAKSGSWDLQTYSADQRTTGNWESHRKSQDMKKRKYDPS

For `Cc1cc(C)c2nc(NNC(=O)c3ccc(S(=O)(=O)N4CCc5ccccc5C4)cc3)sc2c1`, the EC50 [1] was 0.458 µM (active), the EC50 [2] was 7.06 µM (active) and the EC50 [3] was > 150 µM (not active). For the same compound, the EC50 [4] was 0.661 µM (active), the EC50 [5] was > 350 µM (not active) and the EC50 [6] was < 6 µM (inconclusive). For the same compound, the EC50 [7] was 61.5 µM (inconclusive), the EC50 [8] was > 100 µM (inactive) and the AC50 [9] was 2.19 µM (active). The AC50 [10] was 1.98 µM (active), the AC50 [11] was 2.91 µM (active) and the AC50 [12] was 3.35 µM (active). For the same compound, the IC50 [13] was 7.18 µM (active) and the IC50 [14] was 38.1 µM (active).
For `COc1ccccc1CC(=O)Nc1ccc([N+](=O)[O-])cc1O`, the CC50 [15] was 27.7 µM (active), the EC50 [16] was > 29.9 µM (inactive) and the EC50 [17] was > 29.9 µM (not active).
For `Cc1ccc(CN2C3CCCC2CC(NC(=O)c2ccc(F)cc2)C3)cc1` (stereo not drawn), the IC50 [18] was > 32 µM (inactive), the EC50 [19] was > 32 µM (inactive) and the EC50 [20] was > 32 µM (inactive). For the same compound, the IC50 [21] was 7.7 µM (active), the EC50 [22] was > 31.5 µM (inactive) and the IC50 [23] was 3.7 µM.
In the case of `CCOc1cccc2sc(N(CCCN(C)C)C(=O)c3ccc(S(=O)(=O)N4CCc5ccccc5C4)cc3)nc12`, the IC50 [24] is reported as > 20 µM (inactive), the IC50 [25] is reported as 8.33 µM (active) and the IC50 [26] is reported as 7.45 µM (active). The EC50 [8] was > 100 µM (inactive) and the AC50 [27] was 21.2 µM (active).
